Data from PubChem BioAssay (NCI).
Values joined by “and” are separate entries in the source; they are usually repeats but may differ in a detail not shown here. Equal entries are not always repeated.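 Five compound concentrations were applied to cells in 96-well plates for 48 hours; endpoints were derived by simple linear interpolation of the resulting dose-response curve. Here, GI50 denotes the concentration required for 50% inhibition of growth. TGI: total growth inhibition.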

Legend:
Assay in all cases: growth of human tumour cells (NCI), 48 h
HT29 colon = test system: HT29 colon
MOLT-4 leukemia = test system: MOLT-4 leukemia
SK-OV-3 ovarian = test system: SK-OV-3 ovarian
M14 melanoma = test system: M14 melanoma
SF-295 CNS = test system: SF-295 CNS
NCI/ADR-RES ovarian = test system: NCI/ADR-RES ovarian
UACC-62 melanoma = test system: UACC-62 melanoma
SNB-19 CNS = test system: SNB-19 CNS
MDA-MB-435 = test system: MDA-MB-435
OVCAR-5 ovarian = test system: OVCAR-5 ovarian
MCF7 breast = test system: MCF7 breast
SF-539 CNS = test system: SF-539 CNS
HS 578T breast = test system: HS 578T breast
NCI-H460 lung = test system: NCI-H460 lung
DU-145 prostate = test system: DU-145 prostate
NCI-H23 lung = test system: NCI-H23 lung
PC-3 prostate = test system: PC-3 prostate
HL-60(TB) leukemia = test system: HL-60(TB) leukemia
MDA-N = test system: MDA-N
SW-620 colon = test system: SW-620 colon
SK-MEL-2 melanoma = test system: SK-MEL-2 melanoma
SF-268 CNS = test system: SF-268 CNS
UO-31 renal = test system: UO-31 renal
NCI-H522 lung = test system: NCI-H522 lung
SN12C renal = test system: SN12C renal
CAKI-1 renal = test system: CAKI-1 renal
SR leukemia = test system: SR leukemia
OVCAR-8 ovarian = test system: OVCAR-8 ovarian
HCC-2998 colon = test system: HCC-2998 colon
SK-MEL-28 melanoma = test system: SK-MEL-28 melanoma
T-47D breast = test system: T-47D breast
UACC-257 melanoma = test system: UACC-257 melanoma
KM12 colon = test system: KM12 colon
HOP-62 NSCLC = test system: HOP-62 NSCLC
A549 NSCLC = test system: A549 NSCLC
ACHN renal = test system: ACHN renal
CCRF-CEM leukemia = test system: CCRF-CEM leukemia
A498 renal = test system: A498 renal
K-562 leukemia = test system: K-562 leukemia
HCT-15 colon = test system: HCT-15 colon
MDA-MB-231 breast = test system: MDA-MB-231 breast
NCI-H226 lung = test system: NCI-H226 lung
OVCAR-3 ovarian = test system: OVCAR-3 ovarian
LOX IMVI melanoma = test system: LOX IMVI melanoma
MALME-3M melanoma = test system: MALME-3M melanoma
BT-549 breast = test system: BT-549 breast
RXF 393 renal = test system: RXF 393 renal
786-0 renal = test system: 786-0 renal
IGROV1 ovarian = test system: IGROV1 ovarian
SNB-75 CNS = test system: SNB-75 CNS
SK-MEL-5 melanoma = test system: SK-MEL-5 melanoma
RPMI-8226 leukemia = test system: RPMI-8226 leukemia
TK-10 renal = test system: TK-10 renal
HOP-92 NSCLC = test system: HOP-92 NSCLC
EKVX NSCLC = test system: EKVX NSCLC
COLO 205 colon = test system: COLO 205 colon
OVCAR-4 ovarian = test system: OVCAR-4 ovarian
HCT-116 colon = test system: HCT-116 colon

N#Cc1c(-c2ccccc2)c(C#N)c(=S)n(C2OCC(O)C(O)C2O)c1N (configuration not stated)
TGI (HT29 colon): > 100 µM | TGI (MOLT-4 leukemia): > 100 µM | TGI (SK-OV-3 ovarian): > 100 µM | TGI (M14 melanoma): > 100 µM | TGI (SF-295 CNS): > 100 µM | TGI (NCI/ADR-RES ovarian): > 100 µM | TGI (UACC-62 melanoma): > 100 µM | TGI (SNB-19 CNS): > 100 µM | TGI (MDA-MB-435): > 100 µM | TGI (OVCAR-5 ovarian): > 100 µM | TGI (MCF7 breast): > 100 µM | TGI (SF-539 CNS): > 100 µM | TGI (HS 578T breast): > 100 µM | TGI (NCI-H460 lung): > 100 µM | TGI (DU-145 prostate): > 100 µM | TGI (NCI-H23 lung): > 100 µM | TGI (PC-3 prostate): > 100 µM | TGI (HL-60(TB) leukemia): > 100 µM | TGI (MDA-N): > 100 µM | TGI (SW-620 colon): > 100 µM | TGI (SK-MEL-2 melanoma): > 100 µM | TGI (SF-268 CNS): > 100 µM | TGI (UO-31 renal): > 100 µM | TGI (NCI-H522 lung): > 100 µM | TGI (SN12C renal): > 100 µM | TGI (CAKI-1 renal): > 100 µM | TGI (SR leukemia): > 100 µM | TGI (OVCAR-8 ovarian): > 100 µM | TGI (HCC-2998 colon): > 100 µM | TGI (SK-MEL-28 melanoma): > 100 µM | TGI (T-47D breast): > 100 µM | TGI (UACC-257 melanoma): > 100 µM | TGI (KM12 colon): > 100 µM | TGI (HOP-62 NSCLC): > 100 µM | TGI (A549 NSCLC): > 100 µM | TGI (ACHN renal): > 100 µM | TGI (CCRF-CEM leukemia): > 100 µM | TGI (A498 renal): > 100 µM | TGI (K-562 leukemia): > 100 µM | TGI (HCT-15 colon): > 100 µM | TGI (MDA-MB-231 breast): > 100 µM | TGI (NCI-H226 lung): > 100 µM | TGI (OVCAR-3 ovarian): > 100 µM | TGI (LOX IMVI melanoma): > 100 µM | TGI (MALME-3M melanoma): > 100 µM | TGI (BT-549 breast): > 100 µM | GI50 (RXF 393 renal): 26.7 µM and > 100 µM | TGI (RXF 393 renal): > 100 µM | TGI (786-0 renal): > 100 µM | TGI (IGROV1 ovarian): > 100 µM | TGI (SNB-75 CNS): > 100 µM | TGI (SK-MEL-5 melanoma): > 100 µM | TGI (RPMI-8226 leukemia): > 100 µM | TGI (TK-10 renal): > 100 µM

Cc1cccc(Nc2nc(NNC(=O)Cc3ccccc3)nc(NNC(=O)c3ccncc3)n2)c1
TGI (HT29 colon): > 10 µM | TGI (MOLT-4 leukemia): > 10 µM | TGI (SK-OV-3 ovarian): > 10 µM | TGI (M14 melanoma): > 10 µM | TGI (SF-295 CNS): > 10 µM | TGI (NCI/ADR-RES ovarian): > 10 µM | TGI (UACC-62 melanoma): > 10 µM | TGI (SNB-19 CNS): > 10 µM | TGI (MDA-MB-435): > 10 µM | TGI (MCF7 breast): > 10 µM | TGI (SF-539 CNS): > 10 µM | TGI (HS 578T breast): > 10 µM | TGI (NCI-H460 lung): > 10 µM | TGI (HOP-92 NSCLC): > 10 µM | TGI (DU-145 prostate): > 10 µM | TGI (NCI-H23 lung): > 10 µM | TGI (PC-3 prostate): > 10 µM | TGI (HL-60(TB) leukemia): > 10 µM | TGI (MDA-N): > 10 µM | TGI (EKVX NSCLC): > 10 µM | TGI (SW-620 colon): > 10 µM | TGI (SF-268 CNS): > 10 µM | TGI (UO-31 renal): > 10 µM | TGI (NCI-H522 lung): > 10 µM | TGI (SN12C renal): > 10 µM | TGI (CAKI-1 renal): > 10 µM | TGI (SR leukemia): > 10 µM | TGI (OVCAR-8 ovarian): > 10 µM | TGI (HCC-2998 colon): > 10 µM | TGI (SK-MEL-28 melanoma): > 10 µM | TGI (T-47D breast): > 10 µM | TGI (COLO 205 colon): > 10 µM | TGI (UACC-257 melanoma): > 10 µM | TGI (KM12 colon): > 10 µM | TGI (HOP-62 NSCLC): > 10 µM | TGI (A549 NSCLC): > 10 µM | TGI (ACHN renal): > 10 µM | TGI (CCRF-CEM leukemia): > 10 µM | TGI (HCT-15 colon): > 10 µM | TGI (MDA-MB-231 breast): > 10 µM | TGI (NCI-H226 lung): > 10 µM | TGI (LOX IMVI melanoma): > 10 µM | TGI (OVCAR-4 ovarian): > 10 µM | TGI (HCT-116 colon): > 10 µM | TGI (MALME-3M melanoma): > 10 µM | TGI (BT-549 breast): > 10 µM | TGI (RXF 393 renal): > 10 µM | TGI (786-0 renal): > 10 µM | TGI (IGROV1 ovarian): > 10 µM | TGI (SNB-75 CNS): > 10 µM | TGI (SK-MEL-5 melanoma): > 10 µM | TGI (RPMI-8226 leukemia): > 10 µM | TGI (TK-10 renal): > 10 µM
